Laboratory results reported in patent US20100099561A1, “HETEROBICYCLIC ALKYLTHIO-BRIDGED ISOXAZOLINES” (E.I. DU PONT DE NEMOURS AND COMPANY, priority 2008, published 2010).

Assays:
Assay type in all cases: in vivo
[1] = test system: large crabgrass (Digitaria sanguinalis); test: Test A preemergence, large crabgrass; conditions: 0 to 100 scale (0 no effect, 100 complete control)
Outline: (§1)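 Ratings of 0–100 (0 no effect, 100 complete control) came from visual comparison with untreated controls after roughly ten days in a greenhouse. Plants in loam soil–sand blend were treated with compound in non-phytotoxic solvent plus surfactant, pre- or postemergence (one- to two-leaf stage).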

[2] = test system: giant foxtail (Setaria faberi); test: Test A preemergence, giant foxtail; conditions: 0 to 100 scale (0 no effect, 100 complete control)
Outline: as §1

[3] = test system: velvetleaf (Abutilon theophrasti); test: Test A postemergence, velvetleaf; conditions: 0 to 100 scale (0 no effect, 100 complete control)
Outline: as §1

[4] = test system: pigweed (Amaranthus retroflexus); test: Test A postemergence, pigweed; conditions: 0 to 100 scale (0 no effect, 100 complete control)
Outline: as §1

rice (Oryza sativa) = test: Test B flooded paddy test, rice; conditions: Flood, scale 0 to 100
Outline: (§2)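 Step one: raise plants to 2 leaves. Step two: flood pots 3 cm over the soil and apply compound into the water, keeping this depth. Step three: after 13–15 greenhouse days, score visually versus controls, 0–100, where 100 means complete control.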

[5] = test system: wheat (Triticum aestivum); test: Test A preemergence, wheat; conditions: 0 to 100 scale (0 no effect, 100 complete control)
Outline: as §1

[6] = test system: umbrella sedge (Cyperus difformis); test: Test B flooded paddy test, umbrella sedge; conditions: Flood, scale 0 to 100
Outline: as §2

[7] = test system: pigweed (Amaranthus retroflexus); test: Test A preemergence, pigweed; conditions: 0 to 100 scale (0 no effect, 100 complete control)
Outline: as §1

corn (Zea mays) [8] = test: Test A preemergence, corn; conditions: 0 to 100 scale (0 no effect, 100 complete control)
Outline: as §1

[9] = test system: velvetleaf (Abutilon theophrasti); test: Test A preemergence, velvetleaf; conditions: 0 to 100 scale (0 no effect, 100 complete control)
Outline: as §1

[10] = test system: barnyardgrass (Echinochloa crus-galli); test: Test A preemergence, barnyardgrass; conditions: 0 to 100 scale (0 no effect, 100 complete control)
Outline: as §1

[11] = test system: morningglory (Ipomoea spp.); test: Test A preemergence, morningglory; conditions: 0 to 100 scale (0 no effect, 100 complete control)
Outline: as §1

[12] = test system: wheat (Triticum aestivum); test: Test A postemergence, wheat; conditions: 0 to 100 scale (0 no effect, 100 complete control)
Outline: as §1

[13] = test system: barnyardgrass (Echinochloa crus-galli); test: Test B flooded paddy test, barnyardgrass; conditions: Flood
Outline: as §2

[14] = test system: ducksalad (Heteranthera limosa); test: Test B flooded paddy test, ducksalad; conditions: Flood, scale 0 to 100
Outline: as §2

[15] = test system: morningglory (Ipomoea spp.); test: Test A postemergence, morningglory; conditions: 0 to 100 scale (0 no effect, 100 complete control)
Outline: as §1

[16] = test system: barnyardgrass (Echinochloa crus-galli); test: Test A postemergence, barnyardgrass; conditions: 0 to 100 scale (0 no effect, 100 complete control)
Outline: as §1

corn (Zea mays) [17] = test: Test A postemergence, corn; conditions: 0 to 100 scale (0 no effect, 100 complete control)
Outline: as §1

[18] = test system: large crabgrass (Digitaria sanguinalis); test: Test A postemergence, large crabgrass; conditions: 0 to 100 scale (0 no effect, 100 complete control)
Outline: as §1

[19] = test system: giant foxtail (Setaria faberi); test: Test A postemergence, giant foxtail; conditions: 0 to 100 scale (0 no effect, 100 complete control)
Outline: as §1

[20] = 250 g ai/ha, scale 0 to 100 (0 no effect, 100 complete control)

Structure (SMILES)	Plant response rating, Crabgrass, Large ([1]; 125 g ai/ha)	Plant response rating, Crabgrass, Large ([1]; 500 g ai/ha)	Plant response rating, Foxtail, Giant ([2]; 125 g ai/ha)	Plant response rating, Foxtail, Giant ([2]; 500 g ai/ha)	Plant response rating, Velvetleaf ([3]; 125 g ai/ha)	Plant response rating, Velvetleaf ([3]; 500 g ai/ha)	Plant response rating, Pigweed ([4]; 125 g ai/ha)	Plant response rating, Pigweed ([4]; 500 g ai/ha)	Plant response rating, Rice (rice (Oryza sativa); 62 g ai/ha)	Plant response rating, Rice (rice (Oryza sativa); 250 g ai/ha)	Plant response rating, Wheat ([5]; 125 g ai/ha)	Plant response rating, Wheat ([5]; 500 g ai/ha)	Plant response rating, Sedge, Umbrella ([6]; 62 g ai/ha)	Plant response rating, Sedge, Umbrella ([6]; 250 g ai/ha)	Plant response rating, Pigweed ([7]; 125 g ai/ha)	Plant response rating, Pigweed ([7]; 500 g ai/ha)	Plant response rating, Corn (corn (Zea mays) [8]; 125 g ai/ha)	Plant response rating, Corn (corn (Zea mays) [8]; 500 g ai/ha)	Plant response rating, Velvetleaf ([9]; 125 g ai/ha)	Plant response rating, Velvetleaf ([9]; 500 g ai/ha)	further results
Cc1con2c(=O)c(C[S+]([O-])C3=NOC(C)(C)C3)c(C(F)(F)F)nc12 (centres unmarked) [Compound 47]	0	20	0	30	0	0	0	0	0	0	0	0	0	0	0	0	0	0	0	0	Plant response rating, Barnyardgrass ([10]; 125 g ai/ha): 0; Plant response rating, Barnyardgrass ([10]; 500 g ai/ha): 70; Plant response rating, Morningglory ([11]; 125 g ai/ha): 0; Plant response rating, Morningglory ([11]; 500 g ai/ha): 0; Plant response rating, Wheat ([12]; 125 g ai/ha): 0; Plant response rating, Wheat ([12]; 500 g ai/ha): 0; Plant response rating, Barnyardgrass ([13]; 62 g ai/ha, scale 0 to 100): 0; Plant response rating, Barnyardgrass [13, 20]: 0; Plant response rating, Ducksalad ([14]; 62 g ai/ha): 0; Plant response rating, Ducksalad ([14]; 250 g ai/ha): 0; Plant response rating, Morningglory ([15]; 125 g ai/ha): 0; Plant response rating, Morningglory ([15]; 500 g ai/ha): 20; Plant response rating, Barnyardgrass ([16]; 125 g ai/ha): 0; Plant response rating, Barnyardgrass ([16]; 500 g ai/ha): 50; Plant response rating, Corn (corn (Zea mays) [17]; 125 g ai/ha): 0; Plant response rating, Corn (corn (Zea mays) [17]; 500 g ai/ha): 20; Plant response rating, Crabgrass, Large ([18]; 125 g ai/ha): 0; Plant response rating, Crabgrass, Large ([18]; 500 g ai/ha): 60; Plant response rating, Foxtail, Giant ([19]; 125 g ai/ha): 0; Plant response rating, Foxtail, Giant ([19]; 500 g ai/ha): 60
Cc1cc2nc(C(F)(F)F)c(C[S+]([O-])C3=NOC(C)(C)C3)c(=O)n2o1 (centres unmarked) [Compound 50]	0	70	0	70	0	0	0	0	0	0	0	0	0	0	0	0	0	0	0	0	Plant response rating, Barnyardgrass ([10]; 125 g ai/ha): 0; Plant response rating, Barnyardgrass ([10]; 500 g ai/ha): 70; Plant response rating, Morningglory ([11]; 125 g ai/ha): 0; Plant response rating, Morningglory ([11]; 500 g ai/ha): 0; Plant response rating, Wheat ([12]; 125 g ai/ha): 0; Plant response rating, Wheat ([12]; 500 g ai/ha): 0; Plant response rating, Barnyardgrass ([13]; 62 g ai/ha, scale 0 to 100): 0; Plant response rating, Barnyardgrass [13, 20]: 0; Plant response rating, Ducksalad ([14]; 62 g ai/ha): 0; Plant response rating, Ducksalad ([14]; 250 g ai/ha): 0; Plant response rating, Morningglory ([15]; 125 g ai/ha): 0; Plant response rating, Morningglory ([15]; 500 g ai/ha): 10; Plant response rating, Barnyardgrass ([16]; 125 g ai/ha): 0; Plant response rating, Barnyardgrass ([16]; 500 g ai/ha): 60; Plant response rating, Corn (corn (Zea mays) [17]; 125 g ai/ha): 0; Plant response rating, Corn (corn (Zea mays) [17]; 500 g ai/ha): 30; Plant response rating, Crabgrass, Large ([18]; 125 g ai/ha): 0; Plant response rating, Crabgrass, Large ([18]; 500 g ai/ha): 50; Plant response rating, Foxtail, Giant ([19]; 125 g ai/ha): 0; Plant response rating, Foxtail, Giant ([19]; 500 g ai/ha): 60
